In paper PMC3229523, “Identification of Lactoferricin B Intracellular Targets Using an Escherichia coli Proteome Chip” (PLoS ONE, 2011):
Entries after “also recorded” stand apart in the source; their conditions may differ. Ends that are not written are not given here. * marks the point of attachment. Biotin = O=C1N[C@H]2[C@H](CS[C@H]2CCCCC(=O)*)N1

Columns and labels:
nrdF knockout mutant = test: Knockout assay, nrdF knockout mutant; format: cell-based, E. coli K-12; conditions: 32 µM LfcinB, LB medium, 37°C
Experimental: The E. coli K-12 BW25113 (isogenic parent) strain and the 16 knockout strains were obtained from the E. coli Genetic Resources at the Coli Genetic Stock Center (CGSC) at Yale University. The strains were inoculated into LB medium, and incubated at 37°C with shaking. After 16 h of incubation, the cultures were diluted to approximately 10^7 CFU/ml with LB medium. Thirty-two µM of LfcinB were then added to the cultures in a 96-well plate. PBS was used as a negative control. Cultures with LfcinB or PBS were then incubated at 37°C with shaking in a microplate reader and the growth was observed by measuring the OD595 value every 20 min for 7 h 20 min.

YqiA = test: Fluorescence polarization assay, YqiA; format: binding, E. coli; conditions: 100 nM DyLight 549-labeled LfcinB; protein 0.025-0.4 µM; data not shown
Text: (§1) FP assays, investigations of the binding between two molecules in a homogeneous aqueous environment, were used to validate the identified 153 proteins. […] If a fluorophore only binds to a small molecule, such as peptide, the rotation of the complex is fast and the light emits in a different plane of polarization. Therefore, the degree of polarization is low. However, once a fluorophore binds to a large molecule, the bound complex is stimulated with polarized light. The light emits in the same polarized plane, and the complex is maintained in the same plane of polarization, causing an increase in the degree of polarization [22]–[24]. The amount of molecules binding to a fluorophore influences the degree of polarization. In this study, LfcinB was labeled with DyLight™ 549 as a reference value. Once the protein bound to LfcinB, like a fluorophore binds to a large molecule, a high degree of polarization is expected.
(§2) Before the assays, LfcinB was labeled with DyLight™ 549 and tested proteins were quantified with a Pierce® bicinchoninic acid (BCA™) protein assay (Thermo). To label the LfcinB, DyLight™ 549-NHS ester and LfcinB (68∶1, mole/mole) were mixed in PBS at room temperature for 1 h, a D-Salt™ polyacrylamide desalting column (Thermo) was used to remove excess dye and the labeling efficiency of the eluted solution was calculated. […]

MalP = test: Fluorescence polarization assay, MalP; format: binding, E. coli; conditions: 100 nM DyLight 549-labeled LfcinB; protein 0.025-0.4 µM; data not shown
Text: as §1, §2

YjbM = test: Fluorescence polarization assay, YjbM; format: binding, E. coli; conditions: 100 nM DyLight 549-labeled LfcinB; protein 0.025-0.4 µM; data not shown
Text: as §1, §2

HyaF = test: Fluorescence polarization assay, HyaF; format: binding, E. coli
Text: as §1, §2

YnhE = test: Fluorescence polarization assay, YnhE; format: binding, E. coli; conditions: 100 nM DyLight 549-labeled LfcinB; protein 0.025-0.4 µM; data not shown
Text: as §1, §2

YdaU = test: Fluorescence polarization assay, YdaU; format: binding, E. coli; conditions: 100 nM DyLight 549-labeled LfcinB; protein 0.025-0.4 µM; data not shown
Text: as §1, §2

pyruvate in E. coli = test: Pyruvate assay: pyruvate level in E. coli (OD570); format: cell-based, E. coli MG1655; conditions: 32 µM LfcinB
Text: To confirm one of the mechanisms of LfcinB action in pyruvate metabolism, a minimal medium was chosen; because general LB medium contains many carbon sources, including sugars, alcohols and organic acids, this minimal medium allowed glucose to be the sole carbon source in the pyruvate assays. Minimal medium consisted of 6 g/l NaH2PO4, 3 g/l K2HPO4, 0.5 g/l NaCl, 0.12 g/l MgSO4, 1 g/l NH4Cl, 0.01 g/l CaCl2 and 5 g/l glucose. A 0.22 µm filter (Millex®GS, Millipore) was used to filter the minimal medium. E. coli MG1655 was first inoculated into the minimal medium and incubated at 37°C for 16 h with shaking as a preculture. The preculture was diluted 100-fold with the minimal medium in 96-well plate, and 32 µM of LfcinB were added. The mixture was incubated with shaking in a microplate reader at 37°C, and the absorbance was measured after 9 h. Finally, the mixture was harvested by centrifugation at 3452 g for 5 min at 4°C, and each supernatant was removed. The pellets were then stored at −80°C.
To extract the pyruvate in E. coli, hot water extraction was used, a procedure adapted from Canelas et al.. Boiling water was poured into the pellet and it was immediately vortexed. The mixture was then placed in a water bath at 95–100°C for 15 min and cooled on ice. […] Finally, the OD570 of the mixtures was measured by a microplate reader to detect the color intensity.

E. coli = conditions: cited from earlier work
Experimental: Natural antimicrobial peptides are pervasive in plants, insects and animals. […] It is possible that LfcinB served as nutrient for bacteria in the beginning of the assay. […] In the middle part (2–4 h) of the growth curves, the ...

Lactoferricin B (Biotin-FKCRRWQWRMKKLGAPSITCVRRAF; ends and bridges not checked) [LfcinB]
growth curve with vs without LfcinB (nrdF knockout mutant): significant inhibited | binding to YqiA (YqiA): confirmed to bind to LfcinB | binding to MalP (MalP): confirmed to bind to LfcinB | binding to YjbM (YjbM): confirmed to bind to LfcinB | degree of polarization vs BSA (HyaF; 100 nM DyLight 549-labeled LfcinB, protein 0.025-0.4 µM, PBS, 0.005% BSA, 0.01% Triton X-100, room temperature, 1 h, ex 540 nm, em 590 nm, Figure 5A): higher polarization than the negative control | concentration dependence of polarization (HyaF; HyaF, two-fold dilution 0.4 µM to 0.025 µM, 100 nM labeled LfcinB): increased with increasing concentrations of these 4 proteins | binding to YnhE (YnhE): confirmed to bind to LfcinB | binding to YdaU (YdaU): confirmed to bind to LfcinB | pyruvate (OD570) level after 9 h with vs without LfcinB (pyruvate in E. coli; minimal medium): accumulation of pyruvate; also recorded: higher than the level in E. coli without LfcinB | Value of pyruvate (OD570) after 9 h incubation (pyruvate in E. coli; minimal medium with glucose, 37°C, hot water extraction, pyruvate assay kit, E. coli without LfcinB 1.976±0.084): 2.526±0.338 | DNA synthesis at initiation of LfcinB into the medium (E. coli): DNA synthesis was increased | DNA, RNA and protein synthesis of E. coli (E. coli; sublethal concentration): inhibited DNA, RNA and protein synthesis of E. coli | filamentation during an SOS-response (E. coli; sublethal concentration): induced filamentation during an SOS-response
